Laboratory results as given in patent US20060046972A1, “Cytotoxic nucleoside analog compound 003 for treating cancer” (Parker Hughes Institute, priority 2004, published 2006).

What was measured:
[1] = test system: centrosomes isolated from an EBV-transformed B-lymphoblastoid cell line; test: Centrosomal regrowth assay of aster formation from isolated centrosomes; type: biochemical; conditions: 100 μM
Method: Centrosome isolation from an EBV-transformed B-lymphoblastoid cell line was performed following a slight modification of a literature procedure (See, for example, Moudjou and Bomens, 1994, Cell Biology: A Laboratory Handbook, p. 595. Academic Press, Inc, New York; and Cell Biology: A Laboratory Handbook, 1994).
Briefly, cells were grown to a density of 1×10^6 per ml. A total of 1×10^9 cells were treated for 1 hour with […] and […]. All subsequent procedures were performed at 4° C. Firstly, cells were transferred into sterile conical 50 ml tubes and sedimented at 1,200×g for 5 minutes. Cells were then washed twice with 50 ml of filtered tris buffered saline (10 mM Tris-HCl, pH 7.4, 150 mM NaCl, TBS) by gentle resuspension with a pasteur pipette and sedimented at 1,200×g for 5 minutes. Cells were next washed with 8% sucrose in ten times diluted TBS and sedimented at 1,200×g for 5 minutes. Cells were lysed with 100 ml of 1 mM Hepes lysis buffer (0.5% Nonidet-P40), 0.5mM MgCl2, 0.1% β-Mercaptoethanol, 1 mM PMSF, 100 μg/ml aprotinin, 1 μg/ml leupeptin and 1 μg/ml pepstatin), pH 7.2. The swollen nuclei were sedimented at 1,200×g for 10 minutes and the supernatant was filtered through a 70 μm nylon cell strainer. After the addition of 1M Hepes (10 mM final) and 5 μl of 10 mg/ml DNase (1 μg/ml final), the lysate was incubated for 30 minutes at 4° C. […]

[2] = test system: MDA-MB breast cancer cells; test: Confocal laser scanning microscopy of mitotic spindle, MDA-MB; type: cell-based, human
Method: Immunofluorenscence was used to examine the spindle features of human cancer cell lines treated with Compound 003 or 0.5% DMSO. Initially, cells at log phase were seeded onto sterile 22 mm coverslips in six -well culture plates. 24 hours later, the cells were treated with compound 003 for 2 hours at 37° C., 5% C02, fixed in methanol (−20° C. 15 min) followed by a 15 minute incubation with PBS +0.1.% Tx-100. The coverslips were incubated with antibodies raised against α-tubulin, γ-tubulin (Sigma Chemical Co., St Louis, Mo.) (40 min 37° C.), washed in PBS-Tx-100, and incubated with an appropriate secondary antibody conjugated to FITC (Jackson ImmunoResearch, Westgrove, Pa.). Cellular DNA was labeled with 5 μM TOTO3 (Molecular Probes, Eugene, Oreg.) for 20 minutes. Coverslips were immediately inverted onto slides in Vectashield (Vector Labs, Burlingame, Calif.) to prevent photobleaching, sealed with nail varnish and stored at −20° C. The slides were examined using a Bio-Rad MRC-1024 Laser Scanning Confocal Microscope equipped with a Kr/Ar laser (BioRad, Hercules, Calif.) mounted on a Nikon Eclipse E800 upright microscope with high numerical aperture objectives (Nikon, Melville, N.Y.). Digital data were processed using Lasersharp (BioRad) and Adobe Photoshop software (Adobe Systems, Mountain View, Calif.). […]

COC(=O)C(C)NP(=O)(OCC1OC(n2cc(C)c(=O)[nH]c2=O)CC1N=[N+]=[N-])Oc1ccc(OC)cc1 (centres unmarked) [Compound 003, 3′-azidothymidine 5′-[p-methoxyphenylmethoxyalaninyl phosphate]]
nucleation of microtubules and aster growth from isolated centrosomes [1]: inhibited the ability of the centrosomes to nucleate and sufficiently grow microtubule asters
mitotic spindle formation [2]: induced aberrant multipolar (instead of normal bipolar) spindle formation
